Biological target: rPlp (Plp) (Vibrio anguillarum, UniProt Q4ZHV5)
Assay: TLC with fluorescence scanning of BODIPY-lysophosphatidylcholine formation
Assay type: biochemical
Conditions: 20 uM substrate stock mixed 1:1 with enzyme; rPlp routinely 4 ug/ml; no divalent metal needed; labelled compound

Chain of rPlp (Plp) (Q4ZHV5 1-416 limits assumed): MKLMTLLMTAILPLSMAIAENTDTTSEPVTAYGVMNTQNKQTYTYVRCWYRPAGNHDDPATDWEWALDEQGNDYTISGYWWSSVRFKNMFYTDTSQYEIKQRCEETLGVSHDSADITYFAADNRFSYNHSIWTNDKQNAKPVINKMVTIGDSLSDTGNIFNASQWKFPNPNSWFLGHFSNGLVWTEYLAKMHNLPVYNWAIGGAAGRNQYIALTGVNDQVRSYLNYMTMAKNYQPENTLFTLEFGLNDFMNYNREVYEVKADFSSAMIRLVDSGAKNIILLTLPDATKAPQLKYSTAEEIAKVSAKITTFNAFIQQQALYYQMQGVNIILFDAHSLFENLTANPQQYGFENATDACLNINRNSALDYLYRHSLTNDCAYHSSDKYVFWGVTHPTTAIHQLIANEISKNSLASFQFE

CCCCCCCCCC(=O)O[C@H](COCCCCCCCCCCCNC(=O)CCc1ccc2n1[B-](F)(F)[N+]1=C(C)C=C(C)C1=C2)COP(=O)([O-])OCC[N+](C)(C)C [BPC, 2-decanoyl-1-(O-(11-(4,4-difluoro-5,7-dimethyl-4-bora-3a,4a-diaza-s-indacene-3-propionyl)amino)undecyl)-sn-glycero-3-phosphocholine]
TLC with fluorescence scanning of BODIPY-lysophosphatidylcholine formation: rPlp exhibited high activity against phosphatidylcholine, cleaving BPC to yield BLPC and free fatty acid
